In US20040185109A1, “Method for incorporating cationic molecules into a substrate for increasing dispersibility of cationic molecules” (priority 2002, published 2004):

Experiment: Determination of useful cationic compounds: dye mixed with organoclay, clean clay, quat or alone in water, centrifuged, examined visually
Assay type: physicochemical
Settings: for Ionic character (cationic or anionic) concluded from the visual results: conclusion from Test Tubes 1-4
Text: At the outset of the method of the present invention, it must first be determined if a particular compound or molecule will be able to undergo the method of enhancing its dispersibility and thereby its cationic properties as disclosed herein. Thus, a determination must be made (for example, if the ionic character of a certain compound is unknown) whether or not the ion or molecule comprises an cationic portion that will ion exchange onto the surface of a substrate such as a clay or an organoclay. Thus, the molecule or ion can be tested in order to determine whether it has a cationic character (and thus can undergo the present method) or an anionic character or a neutral character. In testing certain molecules or ions, the procedure described below was employed.
Using Jarocol Straw Yellow dye as a representative example, four 1 mg samples of the dye were weighed and placed in 4 test tubes.
Subsequently, 10 mL of water were added to each of the four test tubes, and all of the samples were mixed well for 30 seconds. The samples from each of the test tubes were then centrifuged for 15 minutes in a laboratory scale centrifuge.
Next, the resulting centrifuged samples were examined and analyzed (by being compared to the control sample) to determine whether the Jarocol Straw Yellow dye reacted with the organoclay, the clean clay, or the quat, so that it could then be decided if Jarocol Straw Yellow dye has the requisite cationic character to ion exchange onto the surface of a clay and thereby have increased dispersibility in various application systems.
The analysis herein was performed visually, since the six samples tested were dyes. However, non-dye samples may be analyzed through infrared spectroscopy, differential scanning calorimetry (DSC), gas chromatography, UV spectroscopy, thermogravimetric analysis, or the like. For example, for a non-dye sample, the clay may be separated from the water, both parts may be taken to dryness, and the IR spectrum of each may be recorded.
Just as Jarocol Straw Yellow dye was tested using the four test tubes, the other five dye samples were similarly tested.

| Compound | Ionic character (cationic or anionic) concluded from the visual results | Test Tube 4 (Control, sample only) visual result (1 mg dye only, 10 mL water, mixed 30 seconds, centrifuged 15 minutes) | Test Tube 3 (10 mg Quat) visual result (1 mg dye + 10 mg quat, 10 mL water, mixed 30 seconds, centrifuged 15 minutes) |
| --- | --- | --- | --- |
| CN(C)c1ccc2nc3ccc(=[N+](C)C)cc-3sc2c1 [Methylene Blue, laboratory reagent dye, methylene blue] | have the requisite cationic character | – | – |
| O=C([O-])c1ccccc1-c1c2cc(Br)c(=O)c(Br)c-2oc2c(Br)c([O-])c(Br)cc12.[Na+].[Na+] [D&C Red No. 22 dye] | exhibit anionic character to some extent | – | – |

The next lines start with results.

| Ionic character (cationic or anionic) concluded from the visual results | Test Tube 4 (Control, sample only) visual result (1 mg dye only, 10 mL water, mixed 30 seconds, centrifuged 15 minutes) | Compound | Test Tube 3 (10 mg Quat) visual result (1 mg dye + 10 mg quat, 10 mL water, mixed 30 seconds, centrifuged 15 minutes) |
| --- | --- | --- | --- |
| exhibit anionic character to some extent | – | CCN(Cc1cccc(S(=O)(=O)[O-])c1)c1ccc(C(=C2C=CC(=[N+](CC)Cc3cccc(S(=O)(=O)[O-])c3)C=C2)c2ccccc2S(=O)(=O)[O-])cc1.[Na+].[Na+] [FD&C Blue No. 1 dye] | – |
| anionic in nature | Water was red | Cc1ccc(N=Nc2c([O-])c(C(=O)O)cc3ccccc23)c(S(=O)(=O)[O-])c1.[Na+].[Na+] [Lithol Rubine B] | formed a highly insoluble reaction product with the quat |
| exhibit anionic character to some extent | – | O=C([O-])C1=NN(c2ccc(S(=O)(=O)[O-])cc2)C(=O)C1N=Nc1ccc(S(=O)(=O)[O-])cc1.[Na+].[Na+].[Na+] (stereo not shown) [FD&C Yellow No. 5 dye] | – |
